# How the values were obtained:
# hGHSR1aWT [1] = biological target: T1, hGHSR1aWT (Homo sapiens, UniProt Q92847); test: Gαq/11-dependent intracellular Ca2+ mobilization; type: cell-based; settings: for activity of the pure/resynthesized molecule: screening aliquots contained oxidated impurities
# hGHSR1aWT [2] = biological target: T1, hGHSR1aWT; test: iCa2+ in WT or Gαq/11 KO HEK293/S cells; type: cell-based; settings: 10 μM ligand; versus WT cells
# T1 sequence (Q92847 whole entry): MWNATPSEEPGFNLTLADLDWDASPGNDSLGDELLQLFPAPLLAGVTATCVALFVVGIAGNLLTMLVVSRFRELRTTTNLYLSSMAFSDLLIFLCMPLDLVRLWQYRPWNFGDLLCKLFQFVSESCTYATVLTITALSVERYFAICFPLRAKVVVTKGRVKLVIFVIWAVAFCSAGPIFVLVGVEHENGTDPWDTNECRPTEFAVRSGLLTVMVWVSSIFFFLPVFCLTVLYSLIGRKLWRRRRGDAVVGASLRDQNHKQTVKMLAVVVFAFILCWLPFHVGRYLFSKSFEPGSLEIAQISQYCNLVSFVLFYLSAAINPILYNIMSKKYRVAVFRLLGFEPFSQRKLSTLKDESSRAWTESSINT
activity of the pure/resynthesized molecule (hGHSR1aWT [1]),Compound,also measured
–,Cc1nc2ccc(Oc3ccc(F)cc3)cc2c(=O)n1C[C@H]1CCCN(C(C)C)C1 [YIL781],"inhibition of iCa2+ evoked by EC80 N8279, ghrelin or L585 (hGHSR1aWT [1]; 30 min antagonist pretreatment): competitively inhibited"
–,C[C@@H](O)CNC(C)(C)CC(=O)N[C@@H]1CCc2ccccc2N(Cc2ccc(-c3ccccc3-c3nn[nH]n3)cc2)C1=O [L585],ligand-induced iCa2+ in Gαq/11 KO cells (hGHSR1aWT [2]): abolished
could not be confirmed,CCOc1ccc(C2c3c(oc4ccc(C)cc4c3=O)C(=O)N2CCCN(C)C)cc1OC (stereo not shown) [N1956],–
could not be confirmed,COc1ccc(C2c3c(oc4ccc(Cl)cc4c3=O)C(=O)N2CCCN(C)C)cc1OC (stereo not shown) [N6164],–
